Experimental data published in PubChem BioAssay AID179 (DTP/NCI, 2004).
Calls of active or inactive are those of the source.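 The calls were made as follows: active = compounds giving half or more protection of infected cells from virus-caused growth loss, again on retest; inactive = the rest.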

Test system: CEM cells HIV-1 protection, formazan growth assay
Experiment: NCI AIDS Antiviral Assay
Details: for IC50: measured here: growth of uninfected CEM cells
Procedure, shortened: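 CEM (human) cells, HIV-1 infected vs uninfected, 5-point dosing, formazan growth read-out. Retest threshold 50% protection.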

Row | Compound | EC50 [µM] | IC50 [µM] | outcome
1 | COC(=O)C(=O)C(C(C)=O)C(=O)NCc1ccccc1 (stereo not given) | 47.9 | 67.6 | 
2 | CC(=O)Oc1cccc2c(/C=N/NC(N)=S)ncc(C)c12 | > 200 | 1.23 | 
3 | S=c1[nH]nc2ccccn12 | > 200 | > 200 | 
4 | CCN(CCCl)c1cc(C[N+](C)(C)[O-])cc(NC(=O)c2ccc(C(=O)Nc3cc(C[N+](C)(C)[O-])cc(N(CC)CCCl)c3)cc2)c1 | > 200 | 36.3 | 
5 | O=C(/C=C/C(Cl)(Cl)Cl)Nc1ccc(Cl)cc1 | > 200 | 10.2 | 
6 | C=C1CN(S(=O)(=O)c2ccc(C)cc2)CCCN(Cc2ccccc2)CCN(S(=O)(=O)c2ccc(C)cc2)C1 | > 200 | 155 | 
7 | C#CCN(CCC)C(=O)COc1cc2c(O)c3c(O)c(C)c4c(c13)C(=O)C(C)(O/C=C/C(OC)C(C)C(OC(C)=O)C(C)C(O)C(C)C(O)C(C)/C=C/C=C(\C)C(=O)N2)O4 (stereo not given) | > 200 | 39.8 | 
8 | COC1(OC)c2no[n+]([O-])c2C(OC)(OC)c2c1no[n+]2[O-] | > 200 | 3.89 | 
9 | CC1=C(C(=O)CC(=O)C(=O)Nc2cccc(C)c2C)Sc2ccccc2N1 | > 331 | > 331 | 
10 | c1ccc2c(c1)oc1cc3c(cc12)ncc1cccn13 | > 200 | > 200 | 
11 | O=C1C(=O)C(CCCO)(CCCO)CCCCCCCCC1(CCCO)CCCO | > 200 | 102 | 
12 | N#CNC(=NCc1ccccc1)N(Cc1ccccc1)Cc1ccccc1 | > 14.8 | > 14.8 | 
13 | CCC(C)(C)c1ccc(OCCCCNC(=O)c2ccc3ccccc3c2O)c(C(C)(C)CC)c1 | > 200 | 7.41 | 
14 | C=CCNC(=O)NC1=CSC2=NC(=O)C3(NN12)c1ccccc1-c1ccccc13 | > 200 | 58.9 | 
15 | O=C(CNc1ccc(Cl)cc1Cl)Nn1c(-c2ccccc2)nc2ccccc2c1=O | > 200 | 10.5 | 
16 | CCN(CC)CCC(=O)NC1c2ccccc2Oc2c(C)cccc21 (stereo not given) | > 275 | 58.9 | 
17 | CC1=CC(O)(c2ccc(-c3ccccc3Cl)cc2)OC1=O (stereo not given) |  |  | inactive

Row | Compound | EC50 [µM] | IC50 [µM] | outcome
18 | Cc1cc(NS(=O)(=O)c2ccc(N=[N+]([O-])c3ccc(S(=O)(=O)Nc4cc(C)on4)cc3)cc2)no1 | > 200 | > 200 | 
19 | S=c1sc2ccccc2n1CNc1ccccc1Cl | > 200 | 28.2 | 
20 | Cc1cccc(/C=N/NC(=S)N2CCCC2)n1 | > 100 | 0.115 | 
21 | Cc1cc(C)c(NC(=O)c2cnccn2)c(=O)o1 | > 200 | > 200 | 
22 | CC(=O)c1ccc2c(c1)N(CCCN1CCN(CCO)CC1)c1ccccc1S2 | > 200 | 10.2 | 
23 | COc1ccc2c(c1)C(=O)Cc1ccccc1CC2 | > 39.8 | > 39.8 | 
24 | CCOC(=O)C(CC(C)C)NC(=O)c1cc(SC#N)c(C)c2c1Nc1c(c(C)c3oc(=O)c(C)nc3c1C(=O)NC(CC(C)C)C(=O)OCC)O2 (stereo not given) | > 5.01 | > 5.01 | 
25 | O=C1/C(=C/c2ccc(O)c(O)c2)CCc2ccccc21 | > 162 | 2.4 | 
26 | Cc1ccc(S(=O)(=O)SCCN)cc1 | > 115 | > 100 | 
27 | CCOC(=O)/C=C/c1cccc(OC)c1 | > 158 | > 158 | 
28 | ClCCC1OC(CCCl)OC(CCCl)O1 (stereo not given) | > 200 | > 200 | 
29 | N/N=C(\CC1OC(=O)c2ccccc21)c1ccco1 (stereo not given) | > 977 | 617 | 
30 | C=CCCCCC1CCC2CCC(CCCC)N12 (stereo not given) | > 525 | > 525 | 
31 | Cc1ccc(S(=O)(=O)n2ccnc2)cc1 | > 200 | > 200 | 
32 | C/C(=N\NC(N)=S)c1cn(C2OC(CO)C(O)C2O)c(=O)[nH]c1=O (stereo not given) |  |  | inactive
33 | CCC(COC(/C=C1/C=CC(=O)O1)COC(=O)c1ccccc1)c1ccccc1 (stereo not given) | > 115 | 77.6 | 
34 | CCCC1C/C=C/C=C/C=C/C=C/C(OC2OC(C)C(O)C(N)C2O)CC(O)C(C(=O)O)C(O)CC(=O)CC(O)CCCC(=O)CC(O)C(CC)C(=O)O1 (stereo not given) |  |  | inactive
